Values quoted from earlier work as cited in paper PMC3310340 (Bioconjugate Chemistry, 2012).

Test system: rats
Conditions: administered orally to rats; ref material safety data sheet for KHP

## O=C(O)c1ccccc1C(=O)O [KHP, potassium biphthalate]
  LD50: > 3200 mg/kg
